The source of these data is patent publication US20250282770A1, “BIOLUMINESCENT PROBES TO TRACK STEM CELLS IN VIVO” (THE BOARD OF TRUSTEES OF THE UNIVERSITY OF ILLINOIS, priority 2024, published 2025).

Data set [1] has as its system 4T1-Luc cells. Description: MTT cytotoxicity assay. The format is cell-based, murine. Particulars: up to the highest concentration tested (100 μM); 2 hours. The procedure:
MTT Cytotoxicity Assay. 48-well plates were seeded with 100,000 cells per well ([…]) and incubated at 37° C. with 5% CO2 for 16 hours (˜75% confluent). Media was removed and fresh RPMI 1640 media with 10% FBS containing 100, 50 25, 12.5, 6.25, 3.13, 1.56, or 0 μM AlDeLuc (1% DMSO final v/v) was added. The media was removed after two hours and replaced with 500 μL of 18:1 mixture of FBS-free RPMI 1640 and (3-(4,5-dimethylthiazol-2-yl)-2,5-diphenyltetrazolium bromide (MT, 5 mg/mL stock in PBS). The cells were incubated for one hour at the same conditions before the media was removed. DMSO (500 μL/well) was added, and the absorbance was read at 555 nm on a microplate reader. Viability was calculated by the absorbance relative to the vehicle control. Values are reported as the mean±standard deviation (n=3).

Data set [2] has as its target T1, ALDH1A1 (Mus musculus, UniProt P24549).
T1 sequence (P24549 1-501): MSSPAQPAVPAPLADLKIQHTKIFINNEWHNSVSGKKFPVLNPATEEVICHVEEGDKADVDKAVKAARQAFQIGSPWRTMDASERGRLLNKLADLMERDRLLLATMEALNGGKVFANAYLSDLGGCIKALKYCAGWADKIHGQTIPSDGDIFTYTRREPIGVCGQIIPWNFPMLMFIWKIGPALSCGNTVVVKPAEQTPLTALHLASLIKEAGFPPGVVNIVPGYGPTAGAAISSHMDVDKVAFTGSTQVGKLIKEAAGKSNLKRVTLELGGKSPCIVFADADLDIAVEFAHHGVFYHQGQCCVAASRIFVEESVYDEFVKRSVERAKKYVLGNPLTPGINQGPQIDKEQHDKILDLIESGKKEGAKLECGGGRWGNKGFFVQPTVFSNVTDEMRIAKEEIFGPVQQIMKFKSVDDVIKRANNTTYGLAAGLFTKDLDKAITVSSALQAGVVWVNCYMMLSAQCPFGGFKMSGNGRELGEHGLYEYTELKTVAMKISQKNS
Put plainly: Validation of ALDH-mediated activation of AlDeLuc in heterotopic breast cancer model via DEAB inhibition. The arrangement: from tissue; host or cells: 4T1-Luc tumours in BALB/c mice. The format is in vivo, BALB/c mice. Particulars: AlDeLuc alone 0.55 mg/kg; 40 min after injection. The procedure:
Validation of ALDH-mediated Activation of AlDeLuc in a Heterotopic Breast Cancer Model via DEAB Inhibition. BALB/c mice bearing 4T1-Luc tumors were anesthetized using isoflurane (1-3% for maintenance; up to 5% for induction) in oxygen from a precision vaporizer. After testing to ensure animals are fully under anesthesia, each mouse was administered AlDeLuc via retro-orbital injection (0.55 mg/kg, 1:19 v/v DMSO:PBS). Images were captured using the IVIS imaging system 40 minutes after injection. Bioluminescence light was captured in open mode (no filters were applied). ROIs were drawn around each tumor and summed for each animal. The signal intensity was quantified using the Living Image Analysis Software. After two days, the same animals were anesthetized and co-administered a solution of AlDeLuc and DEAB (0.55 mg/kg and 93 mg/kg respectively, 1:19 v/v DMSO:PBS). After the allotted 40 minutes, the images were captured using the IVIS imaging system. Bioluminescence was collected in open mode (no filters were applied). ROIS were drawn around each tumor and summed for each animal. The signal intensity was quantified using the Living Image Analysis Software.

Data set [3] in a line: Stability in PBS or serum-containing media. The format is physicochemical.
Data set [4] in a line: Stability of AlDeLuc at acidic, neutral and alkaline pHs. The format is physicochemical. The note with it: 2 μM, then ALDH1A1 and luciferase. The method, then:
Stability of AlDeLuc at Acidic, Neutral and Alkaline pHs. The stability of AlDeLuc (2 μM) to acidic, neutral and alkaline conditions were investigated in a black 96-well plate and monitored using the IVIS imaging system. AlDeLuc was incubated in 1 M HCl (acidic), 1 M NaCl (neutral, pH=7), or 1 M NaOH (alkaline) for one hour, neutralized, and diluted with 0.1 M potassium phosphate buffer (pH 7.4). To the black well-plate was added PBS (pH 7.4), NAD^+ (1 mM), ALDH1A1 (0.4 μM), and either the acidic-, neutral-, or alkaline-treated AlDeLuc. Immediately after, each well was treated with ATP-MgSO4 (45 μL, prepared by mixing 17.78 mM ATP-Mg and 35.56 mM MgSO4 in a 1:1 ratio in PBS buffer) and luciferase (5 μL, 1 mg/mL in PBS containing 10% glycerol) to initiate bioluminescence production. Light was collected immediately after mixing, and the signal enhancement was determined relative to control wells not treated with AlDeLuc. The total volume of each well was 200 μL (PBS (pH 7.4) with 0.2% DMSO). All data reported as the mean±standard deviation.

The target in data set [5] is T2, β-Galactosidase (Escherichia coli, UniProt P00722).
T2 construct: purchased Millipore-Sigma Aldrich
Put plainly: Stability of AlDeLuc to β-Galactosidase. Format: biochemical. Particulars: 10 μM; 1 unit of β-Gal. The procedure:
Exploring the Stability of AlDeLuc to β-Galactosidase. The stability of AlDeLuc (10 μM) against β-Galactosidase (β-gal) was determined using a black 96-well plate and monitored using the IVIS imaging system. In a 96-well plate was added PBS (pH 7.4), β-gal (1 unit), and AlDeLuc. As a positive control to the same plate, was added PBS (pH 7.4), ALDH1A1 (0.4 μM), NAD^+ (1 mM), and acid activated AlDeLuc. Immediately after AlDeLuc was added, ATP-MgSO4 (45 μL, prepared by mixing 17.78 mM ATP-Mg and 35.56 mM MgSO4 in a 1:1 ratio in PBS buffer) and luciferase (5 μL, 1 mg/mL in PBS containing 10% glycerol) were administered to initiate bioluminescence production. Light was collected promptly after mixing, and the total luminescent counts were measured for both conditions. The total volume of each well was 200 μL with 0.1% DMSO. All data reported as the mean±standard deviation (n=4).

T2 sequence (P00722 2-1024): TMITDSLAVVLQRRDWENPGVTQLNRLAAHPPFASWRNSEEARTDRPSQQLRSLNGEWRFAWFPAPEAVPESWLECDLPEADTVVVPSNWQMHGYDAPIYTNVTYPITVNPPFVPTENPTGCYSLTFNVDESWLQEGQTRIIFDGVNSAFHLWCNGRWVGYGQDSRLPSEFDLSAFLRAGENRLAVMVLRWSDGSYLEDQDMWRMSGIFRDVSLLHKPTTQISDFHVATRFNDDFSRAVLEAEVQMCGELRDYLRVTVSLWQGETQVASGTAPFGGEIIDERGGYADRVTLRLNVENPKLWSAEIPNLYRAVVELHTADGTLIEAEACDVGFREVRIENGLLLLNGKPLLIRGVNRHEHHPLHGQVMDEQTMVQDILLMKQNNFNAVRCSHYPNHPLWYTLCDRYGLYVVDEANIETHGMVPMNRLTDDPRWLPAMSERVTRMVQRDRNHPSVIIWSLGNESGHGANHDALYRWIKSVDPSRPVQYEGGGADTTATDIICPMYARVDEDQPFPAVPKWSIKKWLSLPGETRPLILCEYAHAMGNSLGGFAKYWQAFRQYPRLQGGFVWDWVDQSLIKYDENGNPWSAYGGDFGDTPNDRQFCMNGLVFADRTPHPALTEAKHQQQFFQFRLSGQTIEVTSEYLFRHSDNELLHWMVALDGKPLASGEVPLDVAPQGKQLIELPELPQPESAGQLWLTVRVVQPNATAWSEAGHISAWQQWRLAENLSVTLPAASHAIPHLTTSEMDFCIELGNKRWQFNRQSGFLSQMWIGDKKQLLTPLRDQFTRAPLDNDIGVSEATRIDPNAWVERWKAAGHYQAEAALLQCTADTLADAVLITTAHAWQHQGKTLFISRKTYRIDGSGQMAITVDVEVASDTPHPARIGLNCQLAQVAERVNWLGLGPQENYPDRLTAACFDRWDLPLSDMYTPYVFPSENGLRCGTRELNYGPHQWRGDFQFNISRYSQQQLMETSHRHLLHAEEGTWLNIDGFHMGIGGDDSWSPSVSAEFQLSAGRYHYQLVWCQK

For the compound `CCN(CC)c1ccc2nc(C3=N[C@@H](C(OC)OC)CS3)sc2c1` [AlDeLuc, (S)-2-(4-(dimethoxymethyl)-4,5-dihydrothiazol-2-yl)-N,N-diethylbenzo[d]thiazol-6-amine], in data set [1], the “cell viability (MTT)” value is given as “nontoxic”. Besides, in data set [2], the total luminescent counts is recorded as 2.18±0.60×10^4. Also, the hydrolysis entry in data set [3] (PBS) and in data set [3] (serum-containing media) was “does not hydrolyze” each time. Moreover, the “bioluminescence (acetal unmasking)” value in data set [4] (1 M NaCl (neutral) one hour) and in data set [4] (1 M NaOH (alkaline) one hour) was “no bioluminescence” throughout. In addition, the stability of acetal entry in data set [5] was “completely stable”.
